Consider 16 compounds from patent US12441725B2, “ISO-citrate dehydrogenase (IDH) inhibitor” (ZHEJIANG METON PHARMACEUTICAL CO., LTD, priority 2019, dated 2025).

The target of one experiment is T1, IDH1 R132H (Homo sapiens, UniProt O75874, R132H).
T1 construct: 6xHis
In words: Biochemical assay for IDH inhibition (NADPH fluorescence), mutant IDH1 R132H. Conditions: 50 nM IDH1-R132H, 1 hour pre-incubation, in triplet. The method, boiled down: (§1)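 Mutant enzyme (25 nM R132C or 50 nM R132H) was preincubated 1 h at room temperature with compound in pH 7.5 Tris buffer containing 1.33 mM α-KG, and the reaction was then started with NADPH (80 μM solution). NADPH consumption was followed by fluorescence (Ex 340/Em 460 nm) for 15 min. IC50 was derived from background-corrected linear rates relative to vehicle, run in triplicate.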

A further experiment addresses T2, IDH1 R132C (Homo sapiens, UniProt O75874, R132C).
T2 construct: 6xHis
In words: Biochemical assay for IDH inhibition (NADPH fluorescence), mutant IDH1 R132C. Conditions: 25 nM IDH1-R132C, 1 hour pre-incubation, in triplet. The method, boiled down: as §1

Experiment [1] concerns the target T3, IDH (endogenous IDH1 R132C) in HT1080 cell (Homo sapiens, UniProt O75874, R132C).
T3 construct: which harbor endogenous heterozygous IDH1 R132C and R132H mutation respectively and accumulate D-2-HG
In words: Cell-based assay for IDH inhibition (decrease of D-2-HG) in HT1080 cells. The conditions noted are these: human fibrosarcoma cell line HT1080, 16 hours treatment, D-2-HG by LC-MS, in triplet. The method, boiled down:
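HT1080 cells with endogenous IDH1 R132C, grown in DMEM/10% FBS, treated with compound at several concentrations for 16 h. Metabolites extracted in cold 40% methanol/40% acetonitrile and D-2-HG measured by HILIC LC-MS/MS, normalized to glutamate. IC50 from D-2-HG relative to DMSO controls; run in triplicate.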

Broadly, the IC50 is the concentration that inhibits the measured activity by half.

A value given as a limit tells only on which side of the number the result lay.

T3 sequence (O75874 2-414 R132C): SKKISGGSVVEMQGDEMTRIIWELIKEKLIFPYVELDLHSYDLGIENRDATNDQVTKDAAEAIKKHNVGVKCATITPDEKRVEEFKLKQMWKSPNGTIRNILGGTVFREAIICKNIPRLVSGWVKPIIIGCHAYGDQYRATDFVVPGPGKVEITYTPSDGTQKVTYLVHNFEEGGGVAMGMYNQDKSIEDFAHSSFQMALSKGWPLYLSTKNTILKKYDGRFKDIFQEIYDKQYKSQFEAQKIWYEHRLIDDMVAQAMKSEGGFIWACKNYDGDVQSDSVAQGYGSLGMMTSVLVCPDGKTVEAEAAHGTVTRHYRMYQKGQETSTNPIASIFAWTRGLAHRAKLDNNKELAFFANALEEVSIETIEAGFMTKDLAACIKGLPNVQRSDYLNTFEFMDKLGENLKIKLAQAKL
T1 sequence (O75874 whole entry R132H): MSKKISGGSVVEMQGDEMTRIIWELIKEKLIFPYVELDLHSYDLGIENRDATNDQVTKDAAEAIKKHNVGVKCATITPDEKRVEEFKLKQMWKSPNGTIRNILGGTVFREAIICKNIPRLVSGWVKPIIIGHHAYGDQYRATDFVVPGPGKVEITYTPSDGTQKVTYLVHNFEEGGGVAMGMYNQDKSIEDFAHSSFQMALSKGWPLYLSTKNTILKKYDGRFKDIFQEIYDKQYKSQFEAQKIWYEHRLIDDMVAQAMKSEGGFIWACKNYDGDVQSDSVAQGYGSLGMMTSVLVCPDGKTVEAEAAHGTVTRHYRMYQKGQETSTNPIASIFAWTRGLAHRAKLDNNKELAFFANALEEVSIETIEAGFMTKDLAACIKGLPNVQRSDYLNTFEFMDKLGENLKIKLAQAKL
T2 sequence (O75874 whole entry R132C): as the sequence (O75874 whole entry R132H) above, with H132C counted along it

With `CCN1Cc2c(ccnc2N[C@@H](C)c2cc(F)c(-c3cc(C(F)(F)F)ncc3OC)cc2F)C1=O` [Compound 143, (S)-4-((1-(2,5-difluoro-4-(5-methoxy-2-(trifluoromethyl)pyridin-4-yl)phenyl)ethyl)amino)-2-ethyl-2,3-dihydro-1H-pyrrolo[3,4-c]pyridin-1-one], the IC50 on IDH1 R132H is less than 100 nM; at IDH1 R132C, 100 to 500 nM; in experiment [1], 100 to 500 nM.
As to `CCN1Cc2c(ccnc2N[C@@H](C)c2cc(F)c(-c3cc(C(F)(F)F)ncc3O)cc2F)C1=O` [Compound 144, (S)-4-((1-(2,5-difluoro-4-(5-hydroxy-2-(trifluoromethyl)pyridin-4-yl)phenyl)ethyl)amino)-2-ethyl-2,3-dihydro-1H-pyrrolo[3,4-c]pyridin-1-one], the concentration for half-maximal inhibition (IC50) (on IDH1 R132H; at IDH1 R132C; in experiment [1]) was more than 1000 nM each time.
Regarding `CCN1Cc2c(ccnc2N[C@@H](C)c2cc(F)c(-c3cc(C(F)(F)F)ncc3OCOC)cc2F)C1=O` [Compound 145, (S)-4-((1-(2,5-difluoro-4-(5-(methoxymethoxy)-2-(trifluoromethyl)pyridin-4-yl)phenyl)ethyl)amino)-2-ethyl-2,3-dihydro-1H-pyrrolo[3,4-c]pyridin-1-one], the figures for the IC50 (at IDH1 R132H; at IDH1 R132C; in experiment [1]) were less than 100 nM, less than 100 nM and 100 to 500 nM, respectively.
`CCN1Cc2c(ccnc2N[C@@H](C)c2cc(F)c(-c3cc4c(cn3)COC4(C)C)cc2F)C1=O` [Compound 146, (S)-4-((1-(4-(1,1-dimethyl-1,3-dihydrofuro[3,4-c]pyridin-6-yl)-2,5-difluorophenyl)ethyl)amino)-2-ethyl-2,3-dihydro-1H-pyrrolo[3,4-c]pyridin-1-one]: the IC50 (at IDH1 R132H; on IDH1 R132C; in experiment [1]) was less than 100 nM in each case.
For the compound `CCN1Cc2c(ccnc2N[C@@H](C)c2cc(F)c(-c3cc(C(C)(C)F)c(COC)cn3)cc2F)C1=O` [Compound 147, (S)-4-((1-(2,5-difluoro-4-(4-(2-fluoropropan-2-yl)-5-(methoxymethyl)pyridin-2-yl)phenyl)ethyl)amino)-2-ethyl-2,3-dihydro-1H-pyrrolo[3,4-c]pyridin-1-one], the IC50 (on IDH1 R132H; on IDH1 R132C; in experiment [1]) was less than 100 nM throughout.
With `CCN1Cc2c(ccnc2N[C@@H](C)c2cc(F)c(-c3cc(C(C)(C)F)c(C(F)(F)F)cn3)cc2F)C1=O` [Compound 148, (S)-4-((1-(2,5-difluoro-4-(4-(2-fluoropropan-2-yl)-5-(trifluoromethyl)pyridin-2-yl)phenyl)ethyl)amino)-2-ethyl-2,3-dihydro-1H-pyrrolo[3,4-c]pyridin-1-one], the IC50 (at IDH1 R132H; on IDH1 R132C; in experiment [1]) was less than 100 nM throughout.
On to `CCN1Cc2c(ccnc2N[C@@H](C)c2cc(F)c(-c3ccc(OC)c(C(C)(C)C)n3)cc2F)C1=O` [Compound 149, (S)-4-((1-(4-(6-(tert-butyl)-5-methoxypyridin-2-yl)-2,5-difluorophenyl)ethyl)amino)-2-ethyl-2,3-dihydro-1H-pyrrolo[3,4-c]pyridin-1-one], for which the results for the IC50 (at IDH1 R132H; at IDH1 R132C; in experiment [1]) were less than 100 nM, 100 to 500 nM and 100 to 500 nM, respectively.
For `CCN1Cc2c(ccnc2N[C@@H](C)c2cc(F)c(-c3cc(C(C)(C)C)c(OC)cn3)cc2F)C1=O` [Compound 150, (S)-4-((1-(4-(4-(tert-butyl)-5-methoxypyridin-2-yl)-2,5-difluorophenyl)ethyl)amino)-2-ethyl-2,3-dihydro-1H-pyrrolo[3,4-c]pyridin-1-one], the IC50 (at IDH1 R132H; on IDH1 R132C; in experiment [1]) was less than 100 nM each time.
In the case of `CCN1Cc2c(ccnc2N[C@@H](C)c2cc(F)c(-c3cc(OC(C)(C)C)ncc3C)cc2F)C1=O` [Compound 151, (S)-4-((1-(4-(2-(tert-butoxy)-5-methylpyridin-4-yl)-2,5-difluorophenyl)ethyl)amino)-2-ethyl-2,3-dihydro-1H-pyrrolo[3,4-c]pyridin-1-one], the IC50 is less than 100 nM at IDH1 R132H, 100 to 500 nM on IDH1 R132C and less than 100 nM in experiment [1].
Consider `CCN1Cc2c(ccnc2N[C@@H](C)c2cc(F)c(-c3cc(OC(C)(C)C)c(Cl)cn3)cc2F)C1=O` [Compound 152, (S)-4-((1-(4-(4-(tert-butoxy)-5-chloropyridin-2-yl)-2,5-difluorophenyl)ethyl)amino)-2-ethyl-2,3-dihydro-1H-pyrrolo[3,4-c]pyridin-1-one], for which the IC50 (at IDH1 R132H; at IDH1 R132C; in experiment [1]) was less than 100 nM throughout.
Take `CCN1Cc2c(ccnc2N[C@@H](C)c2cc(F)c(-c3cc(C(C)(C)F)c(OC)nn3)cc2F)C1=O` [Compound 153, (S)-4-((1-(2,5-difluoro-4-(5-(2-fluoropropan-2-yl)-6-methoxypyridazin-3-yl)phenyl)ethyl)amino)-2-ethyl-2,3-dihydro-1H-pyrrolo[3,4-c]pyridin-1-one]: the IC50 (at IDH1 R132H; on IDH1 R132C; in experiment [1]) was less than 100 nM in each case.
Regarding `CCN1Cc2c(ccnc2N[C@@H](C)c2cc(F)c(-c3ccnc(C(C)(C)C#N)c3)cc2F)C1=O` [Compound 154, (S)-2-(4-(4-(1-((2-ethyl-1-oxo-2,3-dihydro-1H-pyrrolo[3,4-c]pyridin-4-yl)amino)ethyl)-2,5-difluorophenyl)pyridin-2-yl)-2-methylpropanenitrile], the figures for the IC50 (on IDH1 R132H; at IDH1 R132C; in experiment [1]) were 100 to 500 nM, 500 to 1000 nM and 100 to 500 nM, respectively.
`CCN1Cc2c(ccnc2N[C@@H](C)c2cc(F)c(-c3cc(C(F)(F)F)cc(F)n3)cc2F)C1=O` [Compound 155, (S)-4-((1-(2,5-difluoro-4-(6-fluoro-4-(trifluoromethyl)pyridin-2-yl)phenyl)ethyl)amino)-2-ethyl-2,3-dihydro-1H-pyrrolo[3,4-c]pyridin-1-one]: the results for the IC50 (at IDH1 R132H; on IDH1 R132C; in experiment [1]) were less than 100 nM, 100 to 500 nM and 100 to 500 nM, respectively.
Regarding `CCN1Cc2c(ccnc2N[C@@H](C)c2cc(F)c(-c3cc(C(C)(C)F)cc(O)n3)cc2F)C1=O` [Compound 156, (S)-4-((1-(2,5-difluoro-4-(4-(2-fluoropropan-2-yl)-6-hydroxypyridin-2-yl)phenyl)ethyl)amino)-2-ethyl-2,3-dihydro-1H-pyrrolo[3,4-c]pyridin-1-one], the IC50 at IDH1 R132H is 100 to 500 nM; at IDH1 R132C it was 500 to 1000 nM; in experiment [1] it was 100 to 500 nM.
On to `CCN1Cc2c(ccnc2N[C@@H](C)c2cc(F)c(-c3cc(C(F)(F)F)cc(O)n3)cc2F)C1=O` [Compound 157, (S)-4-((1-(2,5-difluoro-4-(6-hydroxy-4-(trifluoromethyl)pyridin-2-yl)phenyl)ethyl)amino)-2-ethyl-2,3-dihydro-1H-pyrrolo[3,4-c]pyridin-1-one], for which the IC50 is 100 to 500 nM at IDH1 R132H, more than 1000 nM at IDH1 R132C and more than 1000 nM in experiment [1].
On to `COCCN1Cc2c(ccnc2N[C@@H](C)c2cc(F)c(-c3ccnc(C(C)(C)C)c3)cc2F)C1=O` [Compound 158, (S)-4-((1-(4-(2-(tert-butyl)pyridin-4-yl)-2,5-difluorophenyl)ethyl)amino)-2-(2-methoxyethyl)-2,3-dihydro-1H-pyrrolo[3,4-c]pyridin-1-one], for which the IC50 is 100 to 500 nM at IDH1 R132H, more than 1000 nM at IDH1 R132C and more than 1000 nM in experiment [1].
